Where two headings read alike, the source gives them in different places.
Legend:
TNFα = assay: Cot Monocyte TNFα Cell Based Assay
Human Cot = Human Cot (Homo sapiens (Human), UniProt P41279); assay: High Throughput Cot Biochemical Assay; settings: Cot HTRF (TR-FRET) biochemical assay
[1] = Homo sapiens, Monocyte, read-out: EC50 TNF, LPS-stimulated human monocytes, TNFα
[2] = read-out: EC50 TNF, LPS-stimulated human monocytes, TNFα

Sequence of Human Cot (P41279 30-397): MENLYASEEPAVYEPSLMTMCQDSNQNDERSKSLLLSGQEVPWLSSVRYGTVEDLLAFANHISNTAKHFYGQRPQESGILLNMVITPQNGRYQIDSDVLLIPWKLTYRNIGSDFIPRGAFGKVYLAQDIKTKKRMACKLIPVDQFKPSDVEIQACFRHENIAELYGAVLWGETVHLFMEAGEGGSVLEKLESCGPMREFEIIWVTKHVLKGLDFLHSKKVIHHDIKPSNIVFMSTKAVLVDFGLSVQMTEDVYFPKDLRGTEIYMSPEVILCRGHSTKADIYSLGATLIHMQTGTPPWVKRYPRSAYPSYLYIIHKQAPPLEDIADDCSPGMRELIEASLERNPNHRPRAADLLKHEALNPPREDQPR

EC50 (TNFα; [1]) [nM]	IC50 (Human Cot; IC50 HTRF) [nM]	EC50 (TNFα; [2]) [nM]	IC50 (Human Cot; read-out: IC50 HTRF) [nM]	Structure (SMILES)
9150	44			CC[C@@H](Nc1c(C#N)cnc2c(Cl)cc(N[C@@H](c3cccnc3)c3cn(CC[N+](C)(CC)CC)nn3)cc12)c1ccccc1 [Example 212, 2-(4-((S)-((8-chloro-3-cyano-4-(((R)-1-phenylpropyl)amino)quinolin-6-yl)amino)(pyridin-3-yl)methyl)-1H-1,2,3-triazol-1-yl)-N,N-diethyl-N-methylethan-1-aminium]
		> 10000	> 10000	N#Cc1cnc2c(Cl)cc(N[C@@H](c3cocn3)c3c[nH]nn3)cc2c1N[C@@H](CO)c1ccccc1 [Example 214, 8-chloro-4-(((R)-2-hydroxy-1-phenylethyl)amino)-6-(((S)-o)(azol-4-yl(1H-1,2,3-triazol-4-yl)methyl)amino)quinoline-3-carbonitrile]
		> 10000	258	N#Cc1cnc2c(Cl)cc(N[C@@H](c3cocn3)c3c[nH]nn3)cc2c1N[C@H](CO)c1ccccc1 [Example 215, 8-chloro-4-(((S)-2-hydroxy-1-phenylethyl)amino)-6-(((S)-o)(azol-4-yl(1H-1,2,3-triazol-4-yl)methyl)amino)quinoline-3-carbonitrile]
1190	38			Cn1nccc1[C@H](Nc1cc(Cl)c2ncc(C#N)c(Nc3ccc(Cl)c(Cl)c3F)c2c1)c1c[nH]nn1 [Example 216, (S)-8-chloro-4-((3,4-dichloro-2-fluorophenyl)amino)-6-(((1-methyl-1H-pyrazol-5-yl)(1H-1,2,3-triazol-4-yl)methyl)amino)quinoline-3-carbonitrile]
2710	26			Cc1ncccc1[C@H](Nc1cc(Cl)c2ncc(C#N)c(N[C@H](CO)c3ccccc3)c2c1)c1c[nH]nn1 [Example 218, 8-chloro-4-(((S)-2-hydroxy-1-phenylethyl)amino)-6-(((S)-(2-methylpyridin-3-yl)(1H-1,2,3-triazol-4-yl)methyl)amino)quinoline-3-carbonitrile]
> 10000	4450			Cc1ncccc1[C@H](Nc1cc(Cl)c2ncc(C#N)c(N[C@@H](CO)c3ccccc3)c2c1)c1c[nH]nn1 [Example 219, 8-chloro-4-(((R)-2-hydroxy-1-phenylethyl)amino)-6-(((S)-(2-methylpyridin-3-yl)(1H-1,2,3-triazol-4-yl)methyl)amino)quinoline-3-carbonitrile]
348	4			CC[C@@H](Nc1c(C#N)cnc2c(Cl)cc(N[C@H](c3c[nH]nn3)c3cccnc3C)cc12)c1ccccc1 [Example 220, 8-chloro-6-(((S)-(2-methylpyridin-3-yl)(1H-1,2,3-triazol-4-yl)methyl)amino)-4-(((R)-1-phenylpropyl)amino)quinoline-3-carbonitrile]
28	2			CC[C@@H](Nc1c(C#N)cnc2c(Cl)cc(N[C@H](c3cn(C4CCN(C(C)(C)C)CC4)nn3)c3cccnc3C)cc12)c1ccccc1 [Example 221, 6-(((S)-(1-(1-(tert-butyl)piperidin-4-yl)-1H-1,2,3-triazol-4-yl)(2-methylpyridin-3-yl)methyl)amino)-8-chloro-4-(((R)-1-phenylpropyl)amino)quinoline-3-carbonitrile]
739	19			N#Cc1cnc2c(Cl)cc(N[C@H](c3c[nH]nn3)c3csc4c3CCN(C3COC3)C4)cc2c1Nc1ccc(Cl)c(Cl)c1F [Example 222, (S)-8-chloro-4-((3,4-dichloro-2-fluorophenyl)amino)-6-(((6-(oxetan-3-yl)-4,5,6,7-tetrahydrothieno[2,3-c]pyridin-3-yl)(1H-1,2,3-triazol-4-yl)methyl)amino)quinoline-3-carbonitrile]
94	7			CC(C)(C)N1CCC(n2cc([C@@H](Nc3cc(Cl)c4ncc(C#N)c(Nc5ccc(Cl)c(Cl)c5F)c4c3)c3csc4c3CCN(C3COC3)C4)nn2)CC1 [Example 223, (S)-6-(((1-(1-(tert-butyl)piperidin-4-yl)-1H-1,2,3-triazol-4-yl)(6-(oxetan-3-yl)-4,5,6,7-tetrahydrothieno[2,3-c]pyridin-3-yl)methyl)amino)-8-chloro-4-((3,4-dichloro-2-fluorophenyl)amino)quinoline-3-carbonitrile]
1490	10			Cc1ncccc1[C@H](Nc1cc(Cl)c2ncc(C#N)c(Nc3cccc(Cl)c3)c2c1)c1cn(C(C)C)nn1 [Example 225, (S)-8-chloro-4-((3-chlorophenyl)amino)-6-(((1-isopropyl-1H-1,2,3-triazol-4-yl)(2-methylpyridin-3-yl)methyl)amino)quinoline-3-carbonitrile]
880	8			Cc1ncccc1[C@H](Nc1cc(Cl)c2ncc(C#N)c(Nc3cccc(Cl)c3)c2c1)c1cn(C2CCN(C(C)(C)C)CC2)nn1 [Example 226, (S)-6-(((1-(1-(tert-butyl)piperidin-4-yl)-1H-1,2,3-triazol-4-yl)(2-methylpyridin-3-yl)methyl)amino)-8-chloro-4-((3-chlorophenyl)amino)quinoline-3-carbonitrile]
6420	44			Cc1ncccc1[C@H](Nc1cc(Cl)c2ncc(C#N)c(Nc3ccc(Cl)c(Cl)c3F)c2c1)c1c[nH]nn1 [Example 227, (S)-8-chloro-4-((3,4-dichloro-2-fluorophenyl)amino)-6-(((2-methylpyridin-3-yl)(1H-1,2,3-triazol-4-yl)methyl)amino)-quinoline-3-carbonitrile]
2310	18			Cc1cncc([C@H](Nc2cc(Cl)c3ncc(C#N)c(Nc4ccc(F)c(Cl)c4)c3c2)c2cn(C(C)C)nn2)c1 [Example 228, (S)-8-chloro-4-((3-chloro-4-fluorophenyl)amino)-6-(((1-isopropyl-1H-1,2,3-triazol-4-yl)(5-methylpyridin-3-yl)methyl)amino)quinoline-3-carbonitrile]
252	9			Cc1ncccc1[C@H](Nc1cc(Cl)c2ncc(C#N)c(N[C@H](C)c3ccccc3)c2c1)c1cn(C(C)C)nn1 [Example 230, 8-chloro-6-(((S)-(1-isopropyl-1H-1,2,3-triazol-4-yl)(2-methylpyridin-3-yl)methyl)amino)-4-(((R)-1-phenylethyl)amino)quinoline-3-carbonitrile]
114	8			Cc1ncccc1[C@H](Nc1cc(Cl)c2ncc(C#N)c(Nc3ccc(Cl)c(Cl)c3F)c2c1)c1cn(C2CCN(C(C)(C)C)CC2)nn1 [Example 233, (S)-6-(((1-(1-(tert-butyl)piperidin-4-yl)-1H-1,2,3-triazol-4-yl)(2-methylpyridin-3-yl)methyl)amino)-8-chloro-4-((3,4-dichloro-2-fluorophenyl)amino)quinoline-3-carbonitrile]
504	21			Cc1ncsc1[C@H](Nc1cc(Cl)c2ncc(C#N)c(Nc3ccc(Cl)c(Cl)c3F)c2c1)c1c[nH]nn1 [Example 234, (R)-8-chloro-4-((3,4-dichloro-2-fluorophenyl)amino)-6-(((4-methylthiazol-5-yl)(1H-1,2,3-triazol-4-yl)methyl)amino)quinoline-3-carbonitrile]
370	17			Cc1ncsc1[C@H](Nc1cc(Cl)c2ncc(C#N)c(Nc3ccc(Cl)c(Cl)c3F)c2c1)c1cn(C(C)C)nn1 [Example 235, (R)-8-chloro-4-((3,4-dichloro-2-fluorophenyl)amino)-6-(((1-isopropyl-1H-1,2,3-triazol-4-yl)(4-methylthiazol-5-yl)methyl)amino)quinoline-3-carbonitrile]
